# Reference: PubChem BioAssay AID330 (DTP/NCI, 2004)
# Values joined by “and” are separate entries in the source; they are usually repeats but may differ in a detail not shown here. Identical values can stand only once. Inconclusive results and toxic doses are left out.
# System: P388 leukemia ip, CD2F1 mice, survival T/C
# Assay: NCI In Vivo Anticancer Drug Screen. Data for tumor model P388 Leukemia (intraperitoneal) in CD2F1 (CDF1) mice
# Settings: endpoint: median survival time, higher = longer survival
# Procedure, shortened: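 Mice carrying the transplanted tumor received test compound or vehicle. Survival was recorded in each group, and the value is the treated-group measurement divided by that of the vehicle-treated control group.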
# [1] = dose: 50.0 mg/kg/injection, schedule: Q01DX005 (ip), vehicle: saline with Tween-80
# [2] = dose: 100.0 mg/kg/injection, schedule: Q01DX005 (ip), vehicle: saline with Tween-80
# [3] = dose: 200.0 mg/kg/injection, schedule: Q01DX005 (ip), vehicle: saline with Tween-80
# [4] = dose: 60.0 mg/kg/injection, schedule: Q01DX005 (ip), vehicle: Klucel (hydroxypropylcellulose) (HPC)
# [5] = dose: 120.0 mg/kg/injection, schedule: Q01DX005 (ip), vehicle: Klucel (hydroxypropylcellulose) (HPC)
# [6] = dose: 240.0 mg/kg/injection, schedule: Q01DX005 (ip), vehicle: Klucel (hydroxypropylcellulose) (HPC)
# [7] = dose: 50.0 mg/kg/injection, schedule: Q01DX005 (ip), vehicle: Klucel (hydroxypropylcellulose) (HPC)
# [8] = dose: 100.0 mg/kg/injection, schedule: Q01DX005 (ip), vehicle: Klucel (hydroxypropylcellulose) (HPC)
smiles,measurement,setting,value
COc1cc2c(c3c1OCO3)-c1ccc(OC)c(=O)cc1C(NC(C)=O)CC2 (stereo not given),T/C,"dose: 1.25 mg/kg/injection, schedule: Q01DX009 (ip), vehicle: Klucel (hydroxypropylcellulose) (HPC)",108 % of control
same,T/C,"dose: 2.5 mg/kg/injection, schedule: Q01DX009 (ip), vehicle: Klucel (hydroxypropylcellulose) (HPC)",104 % of control
same,T/C,"dose: 5.0 mg/kg/injection, schedule: Q01DX009 (ip), vehicle: Klucel (hydroxypropylcellulose) (HPC)",111 % of control
same,T/C,"dose: 10.0 mg/kg/injection, schedule: Q01DX009 (ip), vehicle: Klucel (hydroxypropylcellulose) (HPC)",116 % of control
same,T/C,"dose: 20.0 mg/kg/injection, schedule: Q01DX009 (ip), vehicle: Klucel (hydroxypropylcellulose) (HPC)",118 % of control
COC(=O)COC(=O)C1C(C(N)=O)N(CC(=O)OC)CCN1CC(=O)OC (stereo not given),T/C,[1],103 % of control
same,T/C,[2],103 % of control
same,T/C,[3],103 % of control
Cc1cccc(Nc2c(C(=O)O)cnc3cc4c(cc23)OCO4)c1,T/C,[4],94 % of control
same,T/C,[5],94 % of control
C=CC(C)(O)CS(=O)(=O)c1ccccc1 (stereo not given),T/C,"dose: 50.0 mg/kg/injection, schedule: Q01DX009 (ip), vehicle: saline",93 % of control
same,T/C,"dose: 100.0 mg/kg/injection, schedule: Q01DX009 (ip), vehicle: saline",101 % of control
same,T/C,"dose: 200.0 mg/kg/injection, schedule: Q01DX009 (ip), vehicle: saline",101 % of control
O=C(CCl)NNc1cccc(Cl)n1,T/C,"dose: 50.0 mg/kg/injection, schedule: Q01DX001 (ip), vehicle: Klucel (hydroxypropylcellulose) (HPC)",98 % of control
same,T/C,"dose: 100.0 mg/kg/injection, schedule: Q01DX001 (ip), vehicle: Klucel (hydroxypropylcellulose) (HPC)",98 % of control
same,T/C,"dose: 200.0 mg/kg/injection, schedule: Q01DX001 (ip), vehicle: Klucel (hydroxypropylcellulose) (HPC)",93 % of control
COc1cc2c(cc1C(C)=O)C=CC(C)(C)O2,T/C,"dose: 22.5 mg/kg/injection, schedule: Q01DX005 (ip), vehicle: Klucel (hydroxypropylcellulose) (HPC)",100 % of control
same,T/C,"dose: 45.0 mg/kg/injection, schedule: Q01DX005 (ip), vehicle: Klucel (hydroxypropylcellulose) (HPC)",100 % of control
same,T/C,"dose: 90.0 mg/kg/injection, schedule: Q01DX005 (ip), vehicle: Klucel (hydroxypropylcellulose) (HPC)",94 % of control
same,T/C,"dose: 180.0 mg/kg/injection, schedule: Q01DX005 (ip), vehicle: Klucel (hydroxypropylcellulose) (HPC)",98 % of control
O=C1C(N2CCCCC2)=C(N2CC2)C(=O)C(N2CCCCC2)=C1N1CC1,T/C,"dose: 2.5 mg/kg/injection, schedule: Q01DX009 (ip), vehicle: saline",112 % of control
same,T/C,"dose: 10.0 mg/kg/injection, schedule: Q01DX009 (ip), vehicle: saline",177 % of control
Cc1cc(C)c(C#N)c(Sc2nc(C)c([N+](=O)[O-])c(C)c2C#N)n1,T/C,[1],96 % of control
same,T/C,[2],100 % of control
same,T/C,[3],102 % of control
CCOC(=O)[C]1([Pb]([CH3])([CH3])[CH3])N=NC(C(=O)OC)=C1C(=O)OC (stereo not given),T/C,"dose: 0.78 mg/kg/injection, schedule: Q01DX009 (ip), vehicle: saline",89 % of control
same,T/C,"dose: 1.56 mg/kg/injection, schedule: Q01DX009 (ip), vehicle: saline",90 % of control
same,T/C,"dose: 3.12 mg/kg/injection, schedule: Q01DX009 (ip), vehicle: saline",90 % of control
CC(C)c1cccc(C(C)C)c1NC(=O)Nc1cccc(C(F)(F)F)c1,T/C,"dose: 15.0 mg/kg/injection, schedule: Q01DX005 (ip), vehicle: Klucel (hydroxypropylcellulose) (HPC)",88 % of control
same,T/C,"dose: 30.0 mg/kg/injection, schedule: Q01DX005 (ip), vehicle: Klucel (hydroxypropylcellulose) (HPC)",93 % of control
same,T/C,[6],88 % of control
CC1(O)CC2(O)C=CC3=C(C(=O)c4cccc(O)c4C3=O)C2(O)C(=O)C1O (stereo not given),T/C,"dose: 0.75 mg/kg/injection, schedule: Q01DX005 (ip), vehicle: distilled water + Tween-80 + alcohol",107 % of control
same,T/C,"dose: 1.5 mg/kg/injection, schedule: Q01DX005 (ip), vehicle: distilled water + Tween-80 + alcohol",114 % of control
CCCCN(C)N=Nc1c(C(N)=O)n[nH]c1C,T/C,"dose: 44.0 mg/kg/injection, schedule: Q04DX003 (ip), vehicle: saline with Tween-80",122 % of control
same,T/C,"dose: 100.0 mg/kg/injection, schedule: Q04DX003 (ip), vehicle: saline with Tween-80",150 % of control
same,T/C,"dose: 200.0 mg/kg/injection, schedule: Q04DX003 (ip), vehicle: saline with Tween-80",90 % of control
CCOC(=O)C(NC(N)=O)C(=O)OCC,T/C,"dose: 25.0 mg/kg/injection, schedule: Q01DX009 (ip), vehicle: water",89 % of control
same,T/C,"dose: 50.0 mg/kg/injection, schedule: Q01DX009 (ip), vehicle: water",99 % of control
same,T/C,"dose: 100.0 mg/kg/injection, schedule: Q01DX009 (ip), vehicle: water",100 % of control
same,T/C,"dose: 200.0 mg/kg/injection, schedule: Q01DX009 (ip), vehicle: water",105 % of control
same,T/C,"dose: 400.0 mg/kg/injection, schedule: Q01DX009 (ip), vehicle: water",91 % of control
CNC(=O)OCc1c(COC(=O)NC)c(-c2ccc(Cl)cc2)n(C)c1C,T/C,"dose: 6.25 mg/kg/injection, schedule: Q01DX009 (ip), vehicle: distilled water + Tween-80",155 % of control
same,T/C,"dose: 12.5 mg/kg/injection, schedule: Q01DX009 (ip), vehicle: distilled water + Tween-80",150 % of control and 153 % of control
O=NNc1c2ccccc2nc2ccccc12,T/C,"dose: 0.09 mg/kg/injection, schedule: Q01DX009 (ip), vehicle: water",99 % of control
same,T/C,"dose: 0.18 mg/kg/injection, schedule: Q01DX009 (ip), vehicle: water",95 % of control
same,T/C,"dose: 0.37 mg/kg/injection, schedule: Q01DX009 (ip), vehicle: water",101 % of control
same,T/C,"dose: 0.75 mg/kg/injection, schedule: Q01DX009 (ip), vehicle: water",104 % of control
same,T/C,"dose: 1.5 mg/kg/injection, schedule: Q01DX009 (ip), vehicle: water",86 % of control
CC(C)(CO)NO,T/C,"dose: 50.0 mg/kg/injection, schedule: Q01DX005 (ip), vehicle: saline",106 % of control
same,T/C,"dose: 100.0 mg/kg/injection, schedule: Q01DX005 (ip), vehicle: saline",103 % of control
same,T/C,"dose: 200.0 mg/kg/injection, schedule: Q01DX005 (ip), vehicle: saline",104 % of control
CCN(CC)CCNC(=O)c1ccc(NCN2C(=O)NC(c3ccccc3)(c3ccccc3)C2=O)cc1,T/C,"dose: 60.0 mg/kg/injection, schedule: Q01DX005 (ip), vehicle: saline with Tween-80",104 % of control
same,T/C,"dose: 120.0 mg/kg/injection, schedule: Q01DX005 (ip), vehicle: saline with Tween-80",110 % of control
CN(C)C1C(=O)C(C(N)=O)=C(O)C2(O)C(=O)C3=C(O)c4c(O)cccc4C(C)(O)C3C(O)C12.[Cl][Sb]([Cl])[Cl] (stereo not given),T/C,[1],113 % of control
same,T/C,[2],99 % of control
CC1C(c2ccccc2)NC(c2ccccc2)CC1(N)C#N (stereo not given),T/C,[7],95 % of control
same,T/C,[8],95 % of control
same,T/C,"dose: 200.0 mg/kg/injection, schedule: Q01DX005 (ip), vehicle: Klucel (hydroxypropylcellulose) (HPC)",93 % of control
CCCCCN(CCCCC)CC(O)c1ccc(OC)c2ccccc12 (stereo not given),T/C,[7],88 % of control
same,T/C,[8],88 % of control
CC(c1ccccc1)n1ccnc1CC#N (stereo not given),T/C,"dose: 15.0 mg/kg/injection, schedule: Q01DX005 (ip), vehicle: saline",101 % of control
same,T/C,"dose: 30.0 mg/kg/injection, schedule: Q01DX005 (ip), vehicle: saline",100 % of control
same,T/C,"dose: 60.0 mg/kg/injection, schedule: Q01DX005 (ip), vehicle: saline",99 % of control and 98 % of control
O=[N+]([O-])c1ccc(SC2=NCCN2Cc2ccccc2)c(Cl)c1,T/C,"dose: 50.0 mg/kg/injection, schedule: Q01DX009 (ip), vehicle: saline with Tween-80",88 % of control
same,T/C,"dose: 100.0 mg/kg/injection, schedule: Q01DX009 (ip), vehicle: saline with Tween-80",101 % of control
same,T/C,"dose: 200.0 mg/kg/injection, schedule: Q01DX009 (ip), vehicle: saline with Tween-80",94 % of control
Oc1ccc(C2(c3ccc(O)cc3)CC3CC2C2CCCC32)cc1 (stereo not given),T/C,"dose: 50.0 mg/kg/injection, schedule: Q01DX009 (ip), vehicle: Klucel (hydroxypropylcellulose) (HPC)",98 % of control
same,T/C,"dose: 100.0 mg/kg/injection, schedule: Q01DX009 (ip), vehicle: Klucel (hydroxypropylcellulose) (HPC)",97 % of control
same,T/C,"dose: 200.0 mg/kg/injection, schedule: Q01DX009 (ip), vehicle: Klucel (hydroxypropylcellulose) (HPC)",97 % of control
O=C(O)C(CS(=O)(=O)O)S(=O)(=O)O (stereo not given),T/C,"dose: 7.5 mg/kg/injection, schedule: Q01DX009 (ip), vehicle: saline with Tween-80",110 % of control
same,T/C,"dose: 15.0 mg/kg/injection, schedule: Q01DX009 (ip), vehicle: saline with Tween-80",109 % of control
same,T/C,"dose: 30.0 mg/kg/injection, schedule: Q01DX009 (ip), vehicle: saline with Tween-80",106 % of control
CCN(CCO)CC(O)Cn1cnc2c(N)ncnc21 (stereo not given),T/C,[4],95 % of control
same,T/C,[5],94 % of control
same,T/C,[6],97 % of control
